Values of other authors in patent publication US11576924B2, “Compounds for the prevention and treatment of diseases and the use thereof” (Galectin Sciences, LLC, priority 2017, dated 2023).

Columns and labels:
lung fibrosis = conditions: pulmonary administration (intra-tracheal instillation or nebulizers)
galectin 3 = galectin 3 (Homo sapiens, UniProt P17931)
galectin 3, sequence (P17931 whole entry, species assumed): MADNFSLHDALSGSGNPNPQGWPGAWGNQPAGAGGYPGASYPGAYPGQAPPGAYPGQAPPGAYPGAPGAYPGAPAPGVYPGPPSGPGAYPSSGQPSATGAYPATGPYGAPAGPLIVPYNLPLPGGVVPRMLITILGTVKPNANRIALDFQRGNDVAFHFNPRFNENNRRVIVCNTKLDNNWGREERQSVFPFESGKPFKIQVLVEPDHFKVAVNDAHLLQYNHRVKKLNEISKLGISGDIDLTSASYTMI

**Q.** For `OC[C@H]1O[C@@H](S[C@@H]2O[C@H](CO)[C@H](O)[C@H](n3cc(-c4cccc(F)c4)nn3)[C@H]2O)[C@H](O)[C@@H](n2cc(-c3cccc(F)c3)nn2)[C@H]1O` [TD-139], which “efficacy in mouse model of lung fibrosis” value (lung fibrosis) is on record?
**A.** effective in a mouse model of lung fibrosis

**Q.** And the “binding to galectin 3” value (galectin 3)?
**A.** bind to galectin 3
